Experiments:
Assay type in all cases: functional
Details in all cases: 96 h, read-out: GI
[1] = Growth inhibition of human LNCaP/AR cells assessed as decrease in tumor spheroid growth at 300 nM with media replenishment twice per week along with 3 to 4-day interval compound in presence of enzalutamide relative to control
[2] = Growth inhibition of human LNCaP/AR cells assessed as decrease in tumor spheroid growth at 300 nM with media replenishment twice per week along with 3 to 4-day interval compound relative to control
[3] = Growth inhibition of human LNCaP/AR cells assessed as decrease in tumor spheroid growth at 100 nM with media replenishment twice per week along with 3 to 4-day interval compound relative to control
[4] = Growth inhibition of human LNCaP/AR cells assessed as decrease in tumor spheroid growth at 1000 nM with media replenishment twice per week along with 3 to 4-day interval compound relative to control
[5] = Growth inhibition of human LNCaP/AR cells assessed as decrease in tumor spheroid growth at 1000 nM with media replenishment twice per week along with 3 to 4-day interval compound in presence of Compound A relative to control
[6] = Growth inhibition of human LNCaP/AR cells assessed as decrease in tumor spheroid growth at 1000 nM with media replenishment twice per week along with 3 to 4-day interval compound in presence of palbociclib relative to control
[7] = Growth inhibition of human LNCaP/AR cells assessed as decrease in tumor spheroid growth at 30 nM with media replenishment twice per week along with 3 to 4-day interval compound in presence of enzalutamide relative to control
[8] = Growth inhibition of human LNCaP/AR cells assessed as decrease in tumor spheroid growth at 30 nM with media replenishment twice per week along with 3 to 4-day interval compound relative to control

Row | Structure (SMILES) | inhibition of growth at 0.3 µM [1] | inhibition of growth at 0.3 µM [2] | inhibition of growth at 0.1 µM [3] | inhibition of growth at 1 µM [4] | inhibition of growth at 1 µM [5] | inhibition of growth at 1 µM [6] | inhibition of growth at 0.03 µM [7] | inhibition of growth at 0.03 µM [8]
1 | CC(C)n1c(C(C)(C)O)nc2c(F)cc(-c3nc(N[C@@H]4CCOC[C@H]4O)ncc3Cl)cc21 [ATIRMOCICLIB] | 70% | 38% | 27% | 53% | – | – | – | –
2 | CNC(=O)c1ccc(N2C(=S)N(c3ccc(C#N)c(C(F)(F)F)c3)C(=O)C2(C)C)cc1F [ENZALUTAMIDE] | – | – | – | 46% | 70% | 47% | – | –
3 | CC(=O)c1c(C)c2cnc(Nc3ccc(N4CCNCC4)cn3)nc2n(C2CCCC2)c1=O [PALBOCICLIB] | – | – | 24% | – | – | – | 47% | 5%

— ChEMBL document CHEMBL5143757, “Combination of Cyclin-Dependent Kinase 4 Inhibitors and Androgen Receptor Inhibitors as Cancer Therapy” (2022)
